Assay results published in patent US20220220135A1 (BAR-ILAN UNIVERSITY, priority 2019, published 2022).
Read-outs that look alike come from different tables or passages of the source.

Legend:
NPP1 [1] = molecular target: T1, NPP1 (Homo sapiens, UniProt P22413); details: literature value; cited from earlier work
T1 sequence (P22413 1-925): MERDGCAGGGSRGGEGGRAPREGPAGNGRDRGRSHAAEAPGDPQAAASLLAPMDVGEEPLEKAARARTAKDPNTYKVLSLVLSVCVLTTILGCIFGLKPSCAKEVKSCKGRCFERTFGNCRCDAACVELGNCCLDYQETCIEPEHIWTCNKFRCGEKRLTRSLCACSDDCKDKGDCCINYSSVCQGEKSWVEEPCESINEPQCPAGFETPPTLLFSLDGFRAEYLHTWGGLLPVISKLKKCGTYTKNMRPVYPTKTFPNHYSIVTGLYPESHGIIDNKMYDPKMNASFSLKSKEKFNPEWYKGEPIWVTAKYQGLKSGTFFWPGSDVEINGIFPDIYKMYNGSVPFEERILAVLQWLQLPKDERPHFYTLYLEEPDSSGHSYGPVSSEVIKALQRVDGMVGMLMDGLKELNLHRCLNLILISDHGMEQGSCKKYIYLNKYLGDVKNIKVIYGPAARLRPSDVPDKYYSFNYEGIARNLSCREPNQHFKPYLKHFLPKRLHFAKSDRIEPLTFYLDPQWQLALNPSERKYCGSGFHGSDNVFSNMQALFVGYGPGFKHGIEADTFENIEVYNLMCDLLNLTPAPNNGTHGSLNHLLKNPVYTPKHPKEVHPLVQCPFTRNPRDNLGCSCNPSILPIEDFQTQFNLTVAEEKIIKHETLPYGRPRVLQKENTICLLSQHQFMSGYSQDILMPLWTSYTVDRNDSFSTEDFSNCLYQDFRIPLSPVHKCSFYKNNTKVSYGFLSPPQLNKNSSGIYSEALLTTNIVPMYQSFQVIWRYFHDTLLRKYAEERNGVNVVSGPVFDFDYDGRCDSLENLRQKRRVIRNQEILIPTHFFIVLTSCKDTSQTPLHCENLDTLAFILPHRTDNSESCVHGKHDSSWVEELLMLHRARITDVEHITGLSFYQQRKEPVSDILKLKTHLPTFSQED

human NPP3 [2] = molecular target: T2, human NPP3 (Homo sapiens, UniProt O14638); details: literature value; cited from earlier work
T2 sequence (O14638 1-875): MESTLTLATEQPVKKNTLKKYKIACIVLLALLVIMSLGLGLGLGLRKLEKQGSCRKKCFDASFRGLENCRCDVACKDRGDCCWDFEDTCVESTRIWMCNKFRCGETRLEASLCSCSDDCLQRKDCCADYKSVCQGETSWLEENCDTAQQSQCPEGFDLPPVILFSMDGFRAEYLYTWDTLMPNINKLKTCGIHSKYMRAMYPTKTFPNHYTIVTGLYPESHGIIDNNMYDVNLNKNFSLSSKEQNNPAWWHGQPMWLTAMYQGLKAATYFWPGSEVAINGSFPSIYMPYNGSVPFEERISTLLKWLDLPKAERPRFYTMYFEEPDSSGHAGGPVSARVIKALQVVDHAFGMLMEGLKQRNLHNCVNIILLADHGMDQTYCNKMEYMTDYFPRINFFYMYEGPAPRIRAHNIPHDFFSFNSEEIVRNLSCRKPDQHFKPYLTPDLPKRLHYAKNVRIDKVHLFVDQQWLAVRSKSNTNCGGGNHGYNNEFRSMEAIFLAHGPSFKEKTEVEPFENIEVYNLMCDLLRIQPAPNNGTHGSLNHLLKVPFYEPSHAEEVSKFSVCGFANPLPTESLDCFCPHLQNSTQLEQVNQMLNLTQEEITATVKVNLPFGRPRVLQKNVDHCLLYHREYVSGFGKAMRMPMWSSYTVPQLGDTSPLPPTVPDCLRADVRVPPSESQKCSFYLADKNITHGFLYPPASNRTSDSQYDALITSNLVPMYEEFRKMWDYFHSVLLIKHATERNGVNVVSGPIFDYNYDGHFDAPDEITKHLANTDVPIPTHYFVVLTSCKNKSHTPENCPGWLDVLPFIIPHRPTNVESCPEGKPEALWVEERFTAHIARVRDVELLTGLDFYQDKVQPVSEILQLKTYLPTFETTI

Human CD39 (NTPDase1) = molecular target: T3, Human CD39 (NTPDase1) (Homo sapiens, UniProt P49961); details: literature value; cited from earlier work
T3 sequence (P49961 1-510): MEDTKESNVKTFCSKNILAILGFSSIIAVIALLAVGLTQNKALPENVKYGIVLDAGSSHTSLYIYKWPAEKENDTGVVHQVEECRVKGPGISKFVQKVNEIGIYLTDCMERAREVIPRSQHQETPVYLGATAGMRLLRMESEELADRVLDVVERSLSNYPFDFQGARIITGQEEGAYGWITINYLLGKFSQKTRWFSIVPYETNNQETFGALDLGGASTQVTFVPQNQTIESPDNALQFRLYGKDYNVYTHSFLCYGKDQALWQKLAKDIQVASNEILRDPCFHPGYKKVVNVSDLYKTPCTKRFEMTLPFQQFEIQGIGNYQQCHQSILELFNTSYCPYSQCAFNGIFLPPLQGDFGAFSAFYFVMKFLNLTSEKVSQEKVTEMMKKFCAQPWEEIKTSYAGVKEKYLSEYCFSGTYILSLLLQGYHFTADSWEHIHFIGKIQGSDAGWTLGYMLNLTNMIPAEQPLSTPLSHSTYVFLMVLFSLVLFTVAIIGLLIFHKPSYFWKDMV

Human CD73 = molecular target: T4, Human CD73 (Homo sapiens, UniProt P21589); details: literature value; cited from earlier work
T4 sequence (P21589 27-549): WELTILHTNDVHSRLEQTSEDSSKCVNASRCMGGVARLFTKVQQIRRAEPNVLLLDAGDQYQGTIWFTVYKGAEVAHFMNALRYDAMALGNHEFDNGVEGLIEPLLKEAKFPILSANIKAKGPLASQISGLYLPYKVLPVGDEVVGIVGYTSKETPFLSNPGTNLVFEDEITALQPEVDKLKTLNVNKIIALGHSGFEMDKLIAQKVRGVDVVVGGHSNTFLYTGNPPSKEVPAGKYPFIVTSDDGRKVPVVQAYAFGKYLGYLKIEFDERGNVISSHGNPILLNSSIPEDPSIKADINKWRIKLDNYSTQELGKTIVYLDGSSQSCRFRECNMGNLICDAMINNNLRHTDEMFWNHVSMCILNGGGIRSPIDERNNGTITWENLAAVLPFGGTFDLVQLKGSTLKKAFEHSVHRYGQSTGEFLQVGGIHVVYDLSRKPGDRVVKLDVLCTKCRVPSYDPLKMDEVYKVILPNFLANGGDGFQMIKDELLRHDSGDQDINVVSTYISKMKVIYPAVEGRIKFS

NPP1 [3] = molecular target: T1, NPP1; assay: Inhibition of human NPP1, 100 μM ATP as substrate (FIG. 9, Table 6); type: biochemical; details: ATP (100 μM) as a substrate; for inhibition at 10 µM: n = 3, read-out: % inhibition ± SEM at 10 μM, human NPP1
Experimental: Each experiment was performed in triplicates;

human NPP3 [4] = molecular target: T2, human NPP3; assay: Inhibition of human NPP3, 100 μM p-Nph-5′-TMP as substrate (Tables 5, 7); type: biochemical; details: 100 μM p-Nph-5′-TMP as a substrate; n = 3
human CD39 = molecular target: T5, human CD39 (Homo sapiens, UniProt P49961); assay: Inhibition of human CD39, 0.5 μM PSB-170621A as substrate; type: biochemical; details: 0.5 μM PSB-170621A as a substrate; n = 3
T5 sequence (P49961 1-510): T3 sequence (P49961 1-510)

human P2Y1R = molecular target: T6, human P2Y1R (Homo sapiens, UniProt P47900); assay: Calcium mobilization in 1321N1 astrocytoma cells expressing human P2Y1R; type: cell-based
T6 construct: expressed in transfected cells; host or cells: 1321N1 astrocytoma cells
Experimental: (§1) Given the structural resemblance of 106-109 to the natural ligands of P2Y receptors, adenine and uracil nucleotides as natural substrates, were assessed for agonist potency on the human P2Y1, P2Y2, P2Y4, and P2Y6 receptor. To evaluate NPP1 selectivity of analogs 106-109, they were tested for their ability to activate of the uridine-nucleotide sensitive human recombinant P2Y1,2,4,6-receptors. The agonist potencies of this series of nucleotide analogues on the Gq protein-coupled human P2Y1R, P2Y2R, P2Y4R, and P2Y6R was determined by assessing its ability to induce calcium mobilization in stably transfected 1321N1 astrocytoma cells (Table 8). The nucleotide analogues were found in calcium mobilization assays to activate the P2Y2R with mid-micromolar potency.

human P2Y2R = molecular target: T7, human P2Y2R (Homo sapiens, UniProt P41231); assay: Calcium mobilization in 1321N1 astrocytoma cells expressing human P2Y2R; type: cell-based
T7 construct: expressed in transfected cells; host or cells: 1321N1 astrocytoma cells
Experimental: as §1

human P2Y4R = molecular target: T8, human P2Y4R (Homo sapiens, UniProt P51582); assay: Calcium mobilization in 1321N1 astrocytoma cells expressing human P2Y4R; type: cell-based
T8 construct: expressed in transfected cells; host or cells: 1321N1 astrocytoma cells
Experimental: as §1

NPP1 [5] = molecular target: T1, NPP1; assay: Inhibition of human NPP1, 100 μM p-Nph-5′-TMP as substrate (Tables 5, 6); details: for inhibition at 10 µM: read-out: % inhibition ± SEM at 10 μM, human NPP1
P2Y6R = P2Y6R (Homo sapiens, UniProt Q15077); assay: Calcium mobilization in 1321N1 astrocytoma cells expressing human P2Y6R; type: cell-based; set-up: expressed in transfected cells; host or cells: 1321N1 astrocytoma cells (stably transfected)
Experimental: as §1

T6 sequence (P47900 whole entry): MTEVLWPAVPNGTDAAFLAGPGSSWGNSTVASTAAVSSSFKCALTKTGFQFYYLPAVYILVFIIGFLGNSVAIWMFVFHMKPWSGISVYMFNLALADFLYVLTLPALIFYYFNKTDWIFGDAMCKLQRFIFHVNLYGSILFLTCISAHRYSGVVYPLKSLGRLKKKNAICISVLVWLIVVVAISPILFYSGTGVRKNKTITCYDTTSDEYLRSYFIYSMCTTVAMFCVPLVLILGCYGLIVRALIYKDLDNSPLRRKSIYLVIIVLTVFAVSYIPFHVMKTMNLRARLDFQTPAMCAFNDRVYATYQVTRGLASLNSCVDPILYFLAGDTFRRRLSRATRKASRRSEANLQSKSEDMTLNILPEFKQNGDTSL
T7 sequence (P41231 whole entry): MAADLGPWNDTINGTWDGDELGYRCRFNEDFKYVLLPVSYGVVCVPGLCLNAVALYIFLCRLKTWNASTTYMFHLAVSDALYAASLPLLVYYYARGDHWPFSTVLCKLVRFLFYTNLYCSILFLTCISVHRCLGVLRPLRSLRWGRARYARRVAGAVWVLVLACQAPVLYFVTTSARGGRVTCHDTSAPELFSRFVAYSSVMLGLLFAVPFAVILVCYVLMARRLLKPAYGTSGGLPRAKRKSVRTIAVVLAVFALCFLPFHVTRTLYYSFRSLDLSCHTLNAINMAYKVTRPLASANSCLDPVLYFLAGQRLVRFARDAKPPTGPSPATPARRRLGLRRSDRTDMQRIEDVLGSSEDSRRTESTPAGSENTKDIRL
T8 sequence (P51582 whole entry): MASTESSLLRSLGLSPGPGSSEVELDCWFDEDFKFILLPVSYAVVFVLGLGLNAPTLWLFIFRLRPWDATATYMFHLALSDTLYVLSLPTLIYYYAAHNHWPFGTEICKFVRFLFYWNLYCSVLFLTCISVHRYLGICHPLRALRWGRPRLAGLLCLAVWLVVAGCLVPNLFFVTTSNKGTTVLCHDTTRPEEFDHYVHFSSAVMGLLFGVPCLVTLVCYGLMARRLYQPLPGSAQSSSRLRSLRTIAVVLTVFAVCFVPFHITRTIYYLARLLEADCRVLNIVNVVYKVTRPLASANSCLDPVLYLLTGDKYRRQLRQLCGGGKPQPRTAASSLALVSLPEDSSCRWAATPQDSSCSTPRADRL
Chain of P2Y6R (Q15077 whole entry): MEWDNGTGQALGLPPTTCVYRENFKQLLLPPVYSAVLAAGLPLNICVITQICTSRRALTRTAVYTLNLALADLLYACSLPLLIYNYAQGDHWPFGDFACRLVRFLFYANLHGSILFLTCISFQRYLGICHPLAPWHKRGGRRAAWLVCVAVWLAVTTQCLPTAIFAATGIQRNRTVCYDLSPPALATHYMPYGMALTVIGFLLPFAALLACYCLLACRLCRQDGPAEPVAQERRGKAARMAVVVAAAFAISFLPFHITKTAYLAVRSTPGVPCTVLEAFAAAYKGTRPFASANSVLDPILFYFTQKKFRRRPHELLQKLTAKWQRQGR

Compound | Ki (NPP1 [1]) | Ki (human NPP3 [2]) | Ki (Human CD39 (NTPDase1)) | Ki (Human CD73) | inhibition at 10 µM (NPP1 [3]) | Ki (NPP1 [3]; read-out: Ki (μM ± SD), human NPP1 (converted)) | % inhibition ± SEM, human NPP3 (human NPP3 [4]) | % inhibition ± SEM, human CD39 (human CD39) | % activation at 10 μM, P2Y1 (human P2Y1R) | % activation at 10 μM, P2Y2 (human P2Y2R) | % activation at 10 μM, P2Y4 (human P2Y4R) | Ki (NPP1 [5]) | inhibition at 10 µM (NPP1 [5]) | % activation at 10 μM, P2Y6 (P2Y6R)
Nc1c(S(=O)(=O)O)cc(Nc2ccc(Nc3nc(Cl)nc(Nc4cccc(S(=O)(=O)O)c4)n3)c(S(=O)(=O)O)c2)c2c1C(=O)c1ccccc1C2=O [Reactive Blue 2] | 0.52 µM | 0.71 µM | 20 µM | 3.07 µM |  |  |  |  |  |  |  |  |  | 
Cc1ccc(C(=O)Nc2ccc(S(=O)(=O)O)c3cc(S(=O)(=O)O)cc(S(=O)(=O)O)c23)cc1NC(=O)c1cccc(NC(=O)Nc2cccc(C(=O)Nc3cc(C(=O)Nc4ccc(S(=O)(=O)O)c5cc(S(=O)(=O)O)cc(S(=O)(=O)O)c45)ccc3C)c2)c1 [Suramin] |  |  | 300 µM |  |  |  |  |  |  |  |  |  |  | 
Nc1ncnc2c1ncn2COCCOP(=S)(S)OP(=O)(O)OP(=O)(O)O (centres unmarked) [compound 107] |  |  |  |  | 66 ± 1% | 0.334 µM | 17 ± 1% | 28 ± 1% | −1 ± 1% | 39 ± 13% | −2 ± 2% | 1.98 µM | 74 ± 1% | −5 ± 3%
Nc1ncnc2c1ncn2COCCOP(=S)(S)OP(=O)(O)CP(=O)(O)O (centres unmarked) [compound 108] |  |  |  |  | 16 ± 3% |  |  |  | 0 ± 1% | 44 ± 9% | −2 ± 1% | 2.16 µM | 65 ± 1% | −8 ± 2%
Nc1ncnc2c1ncn2COCCOP(=S)(S)OP(=O)(O)C(Cl)(Cl)P(=O)(O)O (centres unmarked) [compound 109] |  |  |  |  | 37 ± 1% |  |  |  | −2 ± 1% | 21 ± 5% | 0 ± 2% | 0.698 µM | 85 ± 2% | 2 ± 4%
